# According to EP0877740B1, “THIOL DERIVATIVES WITH METALLOPEPTIDASE INHIBITORY ACTIVITY” (ZAMBON GROUP S.p.A., priority 1995, dated 1997):
# Legend:
# NEP = molecular target: T1, NEP (Rattus norvegicus, UniProt P07861); test: In vitro NEP-inhibitory activity in rat kidney cortex membranes ([3H][Leu5]-enkephaline hydrolysis); format: biochemical; design: Kidneys were removed from male Sprague-Dawley rats weighing approximately 300 g; from tissue; host or cells: rat kidney cortex membranes (male Sprague-Dawley); details: [3H][Leu5]-enkephaline 15 nM, 30°C
# T1 sequence (P07861 1-750): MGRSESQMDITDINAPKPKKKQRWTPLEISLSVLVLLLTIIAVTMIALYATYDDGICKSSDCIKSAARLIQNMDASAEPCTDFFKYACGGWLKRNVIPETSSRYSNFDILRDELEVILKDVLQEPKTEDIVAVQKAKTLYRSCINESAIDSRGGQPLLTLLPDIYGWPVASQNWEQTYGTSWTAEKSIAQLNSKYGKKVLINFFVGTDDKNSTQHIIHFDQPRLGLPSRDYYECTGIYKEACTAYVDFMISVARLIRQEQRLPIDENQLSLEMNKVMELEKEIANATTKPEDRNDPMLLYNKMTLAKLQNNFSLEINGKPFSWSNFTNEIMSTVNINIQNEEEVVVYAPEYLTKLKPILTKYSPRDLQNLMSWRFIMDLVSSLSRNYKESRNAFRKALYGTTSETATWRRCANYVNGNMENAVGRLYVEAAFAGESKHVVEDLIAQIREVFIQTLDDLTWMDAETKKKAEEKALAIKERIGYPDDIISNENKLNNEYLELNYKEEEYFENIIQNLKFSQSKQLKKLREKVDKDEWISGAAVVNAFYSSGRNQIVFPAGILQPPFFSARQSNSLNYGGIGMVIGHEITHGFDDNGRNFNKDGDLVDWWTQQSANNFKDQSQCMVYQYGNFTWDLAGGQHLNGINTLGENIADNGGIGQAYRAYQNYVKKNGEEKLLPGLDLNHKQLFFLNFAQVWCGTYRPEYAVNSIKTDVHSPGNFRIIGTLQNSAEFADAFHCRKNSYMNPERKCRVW
# Procedure: The NEP-inhibitory activity was evaluated in rat kidney cortex membranes prepared according to the procedure described by T. Maeda et al. in Biochim. Biophys.
# Kidneys were removed from male Sprague-Dawley rats weighing approximately 300 g and kept at 4°C.
# Kidney cortex was carefully dissected, finely minced and suspended in a homogenization buffer (10 mM sodium phosphate pH 7.4 containing 1 mM MgCl2, 30 mM NaCl, 0.02% NaN3) 1:15 weight/volume.
# The tissue was then cold homogenized for 30 seconds using an Ultra-Turrax homogenizer.
# The membranes were collected from the buffer/sucrose interface, washed twice with 50 mM TRIS/HCl buffer (pH 7.4) and resuspended into the same buffer for storage in small aliquots at -80°C until use.
# The NEP-inhibitory activity was evaluated by using the method described by C.
# Aliquots of the membrane suspension prepared as above described (concentration 5 µg/ml of proteins) were preincubated in the presence of an aminopeptidase inhibitor (Bestatin - 1 mM) for 10 minutes at 30°C.
# Incubation (20 minutes at 30°C) was stopped by adding HCI 0.1M (100 µl).
# The formation of the metabolite [^3H]Tyr-Gly-Gly was quantified by chromatography on polystyrene columns (Porapak Q).
# The percentage of inhibition of the metabolite formation in the membrane preparations treated with the compounds of formula I and with the comparative compounds with respect to the untreated membrane preparations was expressed as IC50 (nM) value.
# ACE = molecular target: T2, ACE (Oryctolagus cuniculus, UniProt P12822); test: In vitro ACE-inhibitory activity (FAPGG substrate, spectrophotometric); format: biochemical; details: ACE purified by lung rabbit, FAPGG 0.8 mM, 37°C
# T2 construct: ACE (250 mU/ml purified by lung rabbit, EC 3.4.15.1 SIGMA); purchased SIGMA; host or cells: rabbit lung (tissue-purified)
# T2 sequence (P12822 34-1310): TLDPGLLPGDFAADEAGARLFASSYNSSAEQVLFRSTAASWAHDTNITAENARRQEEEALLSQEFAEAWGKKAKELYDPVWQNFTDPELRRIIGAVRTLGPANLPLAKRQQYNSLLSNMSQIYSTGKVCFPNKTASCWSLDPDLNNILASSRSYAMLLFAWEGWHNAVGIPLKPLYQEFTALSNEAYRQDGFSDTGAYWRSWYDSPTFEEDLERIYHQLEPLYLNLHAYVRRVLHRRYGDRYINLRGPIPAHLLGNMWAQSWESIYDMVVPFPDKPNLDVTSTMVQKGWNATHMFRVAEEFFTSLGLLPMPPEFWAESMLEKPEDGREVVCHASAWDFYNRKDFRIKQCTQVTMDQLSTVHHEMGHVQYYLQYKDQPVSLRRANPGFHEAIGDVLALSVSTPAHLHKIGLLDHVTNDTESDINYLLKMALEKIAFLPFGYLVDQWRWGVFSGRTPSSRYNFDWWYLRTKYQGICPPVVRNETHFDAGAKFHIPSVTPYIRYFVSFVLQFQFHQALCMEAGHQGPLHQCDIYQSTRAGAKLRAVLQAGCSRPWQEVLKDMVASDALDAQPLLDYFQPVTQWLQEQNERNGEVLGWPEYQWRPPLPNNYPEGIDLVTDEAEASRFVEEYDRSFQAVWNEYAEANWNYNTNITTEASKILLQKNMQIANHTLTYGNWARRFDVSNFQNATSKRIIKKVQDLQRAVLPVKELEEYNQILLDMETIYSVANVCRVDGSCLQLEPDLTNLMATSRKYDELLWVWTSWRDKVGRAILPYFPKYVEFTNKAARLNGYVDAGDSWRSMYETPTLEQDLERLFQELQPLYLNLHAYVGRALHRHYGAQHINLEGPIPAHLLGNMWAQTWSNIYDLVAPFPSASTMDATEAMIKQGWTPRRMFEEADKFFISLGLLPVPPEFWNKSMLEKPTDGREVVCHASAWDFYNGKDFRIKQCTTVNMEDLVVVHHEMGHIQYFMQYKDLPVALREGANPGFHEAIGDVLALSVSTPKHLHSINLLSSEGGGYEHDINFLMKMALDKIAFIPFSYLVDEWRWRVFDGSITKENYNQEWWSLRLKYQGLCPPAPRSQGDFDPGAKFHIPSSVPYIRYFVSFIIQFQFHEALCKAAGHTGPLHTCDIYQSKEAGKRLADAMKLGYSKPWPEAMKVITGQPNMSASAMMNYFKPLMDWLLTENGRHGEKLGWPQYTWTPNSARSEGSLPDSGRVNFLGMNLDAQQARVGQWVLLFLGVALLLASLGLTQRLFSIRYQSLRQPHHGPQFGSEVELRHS
# Procedure: […] of ACE (250 mU/ml purified by lung rabbit, EC 3.4.15.1 SIGMA) were preincubated with 50 µl of the compound of formula I or of the reference compound or related vehicle in thermostated cuvettes at 37°C.
# The reaction was started by adding furylacryloylphenylalanylglycylglycine 0.8 mM (FAPGG-SIGMA).
# Contemporaneously, by using a Beckman DU-50 spectrophotometer provided with a program for calculating delta A/minutes and regression coefficients of the enzyme kinetics curves, the absorbance at 340 nm was recorded in continuo for 5 minutes.
# The percentage of the enzyme inhibition in the preparations treated with the compounds of formula I or with the comparative compounds with respect to the untreated preparations was expressed as IC50 (nM) value.
smiles,measurement,setting,value
"Cc1cc(CC(CS)C(=O)N[C@@H](Cc2ccc(-c3nccs3)cc2)C(=O)O)on1 (stereo partly drawn) [Compound 33, N-[3-mercapto-2-(3-methyl-5-isoxazolyl)methyl-propionyl]-4-(2-thiazolyl)-L-phenylalanine]",IC50,NEP,4.5 nM
same,IC50,ACE,7.9 nM
